Results taken from publication PMC8355244, “A fragment-based approach identifies an allosteric pocket that impacts malate dehydrogenase activity” (Communications Biology, 2021).
Where “and” joins values, the source holds several entries; their conditions need not be identical. Identical values can stand only once. Like-named read-outs stand apart in the source and are kept apart here.

Key:
[1] = target: T1, WT PfMDH (Plasmodium falciparum, UniProt Q6VVP7); experiment: Activity screening of 4DT / 4-phenylthiazol-2-amine derivatives (oxidation of malate, absorbance at 340 nm); format: biochemical; details: for inhibition at 500 µM: Dunnett's multiple comparisons test, read-out: Mean Diff. (positive control vs. compound); for Slope repl1 / Slope repl2: linear regression slope of absorbance 340 nm vs time; for Slope normalized repl1: slope relative to control = 1, replicate 1; for Slope normalized repl2: slope relative to control = 1, replicate 2
T1 construct: The full-length WT PfMDH gene was cloned into pETM-13; made in house; host or cells: E. coli Rosetta 2 (DE3) pLysS
T1 sequence (Q6VVP7 entry or part of it): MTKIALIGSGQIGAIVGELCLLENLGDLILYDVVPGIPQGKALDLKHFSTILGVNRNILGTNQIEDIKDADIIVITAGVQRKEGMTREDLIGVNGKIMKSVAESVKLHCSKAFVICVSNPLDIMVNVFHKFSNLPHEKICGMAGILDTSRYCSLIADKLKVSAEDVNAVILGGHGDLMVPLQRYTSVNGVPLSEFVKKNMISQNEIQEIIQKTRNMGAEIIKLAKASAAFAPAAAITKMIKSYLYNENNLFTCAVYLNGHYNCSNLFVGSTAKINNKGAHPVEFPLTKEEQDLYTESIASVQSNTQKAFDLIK
Protocol: The oxidation of malate to oxaloacetate was assayed spectrophotometrically in flat-bottomed Corning 96-well microplates in a total volume of 250.0 µl in 50 mM glycine buffer pH 10.2[24] with an additional 400 mM NaCl for protein stability. The increase of absorbance at 340 nm was recorded in kinetic mode using a Tecan Spark multimode microplate reader at 298 K. A mastermix of 50 mM NAD+ and 44 μM PfMDH was used for both the screening and kinetics experiments. The final concentration of protein and cofactor were […], respectively. Positive control groups were set (absence of compound) in the same plate as the treated group. The absorbance from the background noise was subtracted from the data and then a linear regression model was employed in order to get the line slope from the first 5 min of the reaction. The percentage of enzymatic activity has been calculated as described by Eq. (1)1 enzymeactivity(%)=slopetreated/slopepositivecontrol*100
1.3 µL of derivatives of 4-phenylthiazol-2-amine in 100% DMSO were mixed with 237.7 µL of a mastermix of WT PfMDH previously incubated with NAD+. The final compound concentration used in this screening was 500 µM in the presence of 0.5% (v/v) DMSO. The microplate was sealed with silver foil for 1-h incubation at 25–35 °C. Finally, reactions in both the samples and control wells were started upon the addition of 13.0 µL of 5 mM malate). At the end of the experiments, the reaction of the plate was spectrophotometrically assayed at 600 nm in order to identify turbidity due to the low solubility of the compound. All measurements were performed in duplicate.

[2] = target: T2, PfMDH (Plasmodium falciparum, UniProt Q6VVP7); experiment: Thermal shift assay (TSA); format: binding; details: for TSA melting curve raw signal: triplicate columns; for TSA melting curve raw fluorescence signal: three replicate columns
T2 construct: The full-length WT PfMDH gene was cloned into pETM-13; made in house; host or cells: E. coli Rosetta 2 (DE3) pLysS
T2 sequence (Q6VVP7 entry or part of it): as above
Protocol: The TSA experiment was conducted in a BioRad CSX 96 (Biorad). Each reaction consisted of 1 mM of compound (100 mM stock in 100% (v/v) DMSO) and 10 μM PfMDH in 100 mM Na–phosphate buffer pH 7.4, 400 mM NaCl, and 10× Sypro Orange (Invitrogen) for a total volume of 100 μl. Control experiments were performed with 1% (v/v) DMSO. Inflection points were determined using BioRad CFX96™ control software. Generally, a temperature increase of over 1 °C is interpreted as a result of the stabilization of the protein-ligand interaction. On the contrary, a negative shift is considered a destabilization caused by the fragment.

[3] = 500 µM compound, Dunnett test details, positive control mean 100, n 2, read-out: Mean 2 (mean % enzymatic activity of treated group)
[4] = 500 µM compound, control 100%, replicate 1, read-out: % enzymatic activity repl1
[5] = 500 µM compound, control 100%, replicate 2, read-out: % enzymatic activity repl2

NCc1ccc(-c2csnn2)cc1 [2b]
remaining activity at 500 µM [1, 3]: 65%
inhibition at 500 µM ([1]; 500 µM compound): 35%
remaining activity at 500 µM [1, 4]: 83%
remaining activity at 500 µM [1, 5]: 47%
Slope repl1 ([1]; 500 µM compound, replicate 1): 0.02772
Slope repl2 ([1]; 500 µM compound, replicate 2): 0.01654
Slope normalized repl1 ([1]; 500 µM compound): 0.8322
Slope normalized repl2 ([1]; 500 µM compound): 0.472
remaining activity at 500 µM ([1]; read-out: enzyme activity): 65%

CC(C)c1ccc(-c2csc(N)n2)cc1 [4PA-iPr]
TSA melting curve raw signal ([2]; Temperature 25): 8994.553 and 9647.617 and 6438.185
TSA melting curve raw signal ([2]; Temperature 28.5): 8708.714 and 9422.913 and 6243.713
TSA melting curve raw signal ([2]; Temperature 29): 8666.326 and 9387.251 and 6213.386
TSA melting curve raw signal ([2]; Temperature 29.5): 8621.607 and 9346.814 and 6180.231
TSA melting curve raw signal ([2]; Temperature 30): 8573.486 and 9300.135 and 6142.94
TSA melting curve raw signal ([2]; Temperature 30.5): 8522.699 and 9247.509 and 6102.88
TSA melting curve raw signal ([2]; Temperature 31): 8469.615 and 9188.155 and 6059.768
TSA melting curve raw signal ([2]; Temperature 31.5): 8414.733 and 9123.458 and 6015.201
TSA melting curve raw signal ([2]; Temperature 32): 8359.407 and 9056.051 and 5970.18
TSA melting curve raw signal ([2]; Temperature 32.5): 8304.924 and 8988.081 and 5926.995
TSA melting curve raw signal ([2]; Temperature 33): 8252.482 and 8921.905 and 5886.489
TSA melting curve raw signal ([2]; Temperature 33.5): 8202.645 and 8859.372 and 5849.818
TSA melting curve raw signal ([2]; Temperature 34): 8155.604 and 8800.883 and 5816.694
TSA melting curve raw signal ([2]; Temperature 34.5): 8111.732 and 8745.628 and 5787.575
TSA melting curve raw signal ([2]; Temperature 35): 8070.534 and 8693.896 and 5761.965
TSA melting curve raw signal ([2]; Temperature 35.5): 8031.026 and 8644.443 and 5738.964
TSA melting curve raw signal ([2]; Temperature 36): 7993.542 and 8596.911 and 5718.436
TSA melting curve raw signal ([2]; Temperature 36.5): 7957.673 and 8551.007 and 5700.528
TSA melting curve raw signal ([2]; Temperature 37): 7922.464 and 8507.049 and 5684.445
TSA melting curve raw signal ([2]; Temperature 37.5): 7887.874 and 8463.879 and 5669.608
TSA melting curve raw signal ([2]; Temperature 38): 7853.441 and 8420.795 and 5655.816
TSA melting curve raw signal ([2]; Temperature 38.5): 7818.479 and 8377.106 and 5642.728
TSA melting curve raw signal ([2]; Temperature 39): 7782.8 and 8332.642 and 5629.831
TSA melting curve raw signal ([2]; Temperature 39.5): 7746.169 and 8286.504 and 5617.536
TSA melting curve raw signal ([2]; Temperature 40): 7708.198 and 8238.766 and 5605.837
TSA melting curve raw signal ([2]; Temperature 40.5): 7669.164 and 8190.253 and 5594.748
TSA melting curve raw signal ([2]; Temperature 41): 7629.283 and 8141.701 and 5584.57
TSA melting curve raw signal ([2]; Temperature 41.5): 7588.559 and 8093.153 and 5575.514
TSA melting curve raw signal ([2]; Temperature 42): 7547.254 and 8045.202 and 5567.299
TSA melting curve raw signal ([2]; Temperature 42.5): 7505.687 and 7998.361 and 5560.186
TSA melting curve raw signal ([2]; Temperature 43): 7464.06 and 7952.024 and 5554.6
TSA melting curve raw signal ([2]; Temperature 43.5): 7421.867 and 7905.832 and 5550.504
TSA melting curve raw signal ([2]; Temperature 44): 7379.597 and 7859.513 and 5547.899
TSA melting curve raw signal ([2]; Temperature 44.5): 7337.446
TSA melting curve raw fluorescence signal ([2]; Temperature 73.5): 5613.749 and 6203.164 and 5886.042
TSA melting curve raw fluorescence signal ([2]; Temperature 74): 5569.101 and 6153.132 and 5854.081
TSA melting curve raw fluorescence signal ([2]; Temperature 74.5): 5525.043 and 6104.144 and 5823.779
TSA melting curve raw fluorescence signal ([2]; Temperature 75): 5482.121 and 6056.683 and 5794.617
TSA melting curve raw fluorescence signal ([2]; Temperature 75.5): 5439.984 and 6011.409 and 5766.404
TSA melting curve raw fluorescence signal ([2]; Temperature 76): 5398.991 and 5968.463 and 5738.594
TSA melting curve raw fluorescence signal ([2]; Temperature 76.5): 5359.122 and 5928.32 and 5710.64
TSA melting curve raw fluorescence signal ([2]; Temperature 77): 5320.849 and 5890.984 and 5682.195
TSA melting curve raw fluorescence signal ([2]; Temperature 77.5): 5284.278 and 5856.438 and 5652.603
TSA melting curve raw fluorescence signal ([2]; Temperature 78): 5250.129 and 5824.453 and 5622.025
TSA melting curve raw fluorescence signal ([2]; Temperature 78.5): 5218.737 and 5795.085 and 5590.553
TSA melting curve raw fluorescence signal ([2]; Temperature 79): 5190.081 and 5767.8 and 5558.166
TSA melting curve raw fluorescence signal ([2]; Temperature 79.5): 5164.369 and 5742.56 and 5524.814
TSA melting curve raw fluorescence signal ([2]; Temperature 80): 5141.29 and 5718.857 and 5491.376
TSA melting curve raw fluorescence signal ([2]; Temperature 80.5): 5120.384 and 5696.2 and 5457.362
TSA melting curve raw fluorescence signal ([2]; Temperature 81): 5101.31 and 5674.042 and 5422.806
TSA melting curve raw fluorescence signal ([2]; Temperature 81.5): 5083.427 and 5652.313 and 5387.856
TSA melting curve raw fluorescence signal ([2]; Temperature 82): 5065.661 and 5630.45 and 5352.463
TSA melting curve raw fluorescence signal ([2]; Temperature 82.5): 5047.726 and 5608.308 and 5316.196
TSA melting curve raw fluorescence signal ([2]; Temperature 83): 5028.992 and 5585.969 and 5279.628
TSA melting curve raw fluorescence signal ([2]; Temperature 83.5): 5009.082 and 5563.202 and 5242.696
TSA melting curve raw fluorescence signal ([2]; Temperature 84): 4988.359 and 5539.6 and 5205.226
TSA melting curve raw fluorescence signal ([2]; Temperature 84.5): 4967.168 and 5515.215 and 5167.448
TSA melting curve raw fluorescence signal ([2]; Temperature 85): 4945.239 and 5489.971 and 5129.648
TSA melting curve raw fluorescence signal ([2]; Temperature 85.5): 4923.212 and 5463.869 and 5091.727
TSA melting curve raw fluorescence signal ([2]; Temperature 86): 4900.827 and 5436.832 and 5053.765
TSA melting curve raw fluorescence signal ([2]; Temperature 86.5): 4877.872 and 5409.317 and 5016.032
TSA melting curve raw fluorescence signal ([2]; Temperature 87): 4854.433 and 5381.152 and 4978.26
TSA melting curve raw fluorescence signal ([2]; Temperature 87.5): 4830.501 and 5352.422 and 4939.972
TSA melting curve raw fluorescence signal ([2]; Temperature 88): 4805.564 and 5322.651 and 4900.899
TSA melting curve raw fluorescence signal ([2]; Temperature 88.5): 4779.827 and 5291.937 and 4861.053
TSA melting curve raw fluorescence signal ([2]; Temperature 89): 4753.311 and 5260.016 and 4820.436
TSA melting curve raw fluorescence signal ([2]; Temperature 89.5): 4725.882 and 5227.256 and 4779.347
TSA melting curve raw fluorescence signal ([2]; Temperature 90): 4698.144

CC(C)(C)OC(=O)CNC(=O)c1cc(-c2cccs2)on1 [4b]
remaining activity at 500 µM [1, 3]: 21%
inhibition at 500 µM ([1]; 500 µM compound): 79.5%
remaining activity at 500 µM [1, 4]: 22%
remaining activity at 500 µM [1, 5]: 19%
Slope repl1 ([1]; 500 µM compound, replicate 1): 0.007266
Slope repl2 ([1]; 500 µM compound, replicate 2): 0.006583
Slope normalized repl1 ([1]; 500 µM compound): 0.2181
Slope normalized repl2 ([1]; 500 µM compound): 0.1879
remaining activity at 500 µM ([1]; read-out: enzyme activity): 20%

O=C(O)c1cc(-c2cccs2)on1 [compound 1b]
remaining activity at 500 µM [1, 3]: 60%
inhibition at 500 µM ([1]; 500 µM compound): 40.5%
remaining activity at 500 µM [1, 4]: 65%
remaining activity at 500 µM [1, 5]: 54%
Slope repl1 ([1]; 500 µM compound, replicate 1): 0.0217
Slope repl2 ([1]; 500 µM compound, replicate 2): 0.019
Slope normalized repl1 ([1]; 500 µM compound): 0.6515
Slope normalized repl2 ([1]; 500 µM compound): 0.5422
remaining activity at 500 µM ([1]; read-out: enzyme activity): 60%
